The values that follow come from patent US7312205B2, “Methods and compositions for inhibiting tumor growth” (Novelix Pharmaceuticals, Inc., priority 2003, dated 2007).

For assay [1], the system named is liposarcoma line (ATCC HTB-92). The assay is described as follows: Growth inhibition in liposarcoma line ATCC HTB-92 (cell survival vs untreated controls). It is filed as cell-based. From the text:
(§1) Examples 1 and 2 show direct comparisons between comparative compound A (betulic acid) and a novel derivative (compound B) in paired growth assays (cell count decrease after 3 days after a single application of the indicated concentrations of the respective compounds on day 1).
Comparison of the efficacy of comparative compound (A) (betulic acid) with that of compound (B) (protected betulic acid trisester) in a liposarcoma line (ATCC HTB-92). The X-axis indicates the concentration in μg/ml of compounds A and B, respectively, the Y-axis gives the cell survival rate in percent of the untreated controls. […]

For assay [2], the system named is melanoma cell line 518A2. The assay is described as follows: Growth inhibition in melanoma cell line 518A2 (cell survival vs untreated controls). The format is cell-based.
Text: as §1
Comparison of compound (A) (betulic acid) with compound (B) (protected betulic acid trisester)—Growth inhibition in melanoma cell line 518A2 (obtained from Peter Schrier, Leiden, The Netherlands) […]. The X-axis indicates the concentration in μg/ml of compounds A and B, respectively, the Y-axis gives the cell survival rate in percent of the untreated controls.
Comparison of the effects of different betulic acid derivatives according to the invention and of the comparative compound (betulic acid), respectively, on various melanoma-sarcoma lines. The data each refer to cell survival rates in percent (mean values) as against untreated cell cultures.
Survival in percent as with all other data after 3 days of cell culture after a single application on day 1

Where [3] appears, read: liposarcoma ATCC HTB-92, 0.3 μg/ml.
The mark [4] stands for this setting: liposarcoma ATCC HTB-92, 0.6 μg/ml.
Setting [5] is: liposarcoma ATCC HTB-92, 1 μg/ml.
Where [6] appears, read: liposarcoma ATCC HTB-92, 1.25 μg/ml.
Setting [7] is: liposarcoma ATCC HTB-92, 2.5 μg/ml.
The mark [8] stands for this setting: liposarcoma ATCC HTB-92, 5 μg/ml.
Setting [9] is: liposarcoma ATCC HTB-92, 10 μg/ml.

For the compound `C=C(C)[C@@H]1CC[C@]2(C(=O)NC(CO)(CO)CO)CC[C@]3(C)[C@H](CC[C@@H]4[C@@]5(C)CC[C@H](OC(C)=O)C(C)(C)[C@@H]5CC[C@]43C)[C@@H]12` [Compound C, Acetyl betulic acid-N-(1,1-bis(hydroxymethyl)-2-hydroxyethyl)formamide], the survival in % stood at 96% in assay [1] (setting [3]); 82% in assay [1] (setting [4]); 81% in assay [1] (setting [5]); 67.5% in assay [2] (melanoma 518A2, 1 μg/ml). Also, the “Survival in % melanoma” value in assay [2] (melanoma 518A2, 0.25 μg/ml) stood at 96%; in assay [2] (melanoma 518A2, 0.5 μg/ml), 93%.

As to `C=C(C)[C@@H]1CC[C@]2(C(=O)OCC(N)(CO)CO)CC[C@]3(C)[C@H](CC[C@@H]4[C@@]5(C)CC[C@H](OC(C)=O)C(C)(C)[C@@H]5CC[C@]43C)[C@@H]12` [Compound B, Acetyl betulic acid-2-amino-3-hydroxy-2-hydroxymethyl propyl ester], the survival in % worked out at 89.5% in assay [1] (setting [3]); 70.7% in assay [1] (setting [4]); 12.0% in assay [1] (setting [5]); 2.9% in assay [1] (setting [6]); 3.0% in assay [1] (setting [7]); 0.0% in assay [1] (setting [8]). The survival in % in assay [1] (setting [9]) is given as 0.0%; in assay [2] (melanoma 518A2, 0.3 μg/ml) it was 83.0%; in assay [2] (melanoma 518A2, 0.6 μg/ml), 56.3%; in assay [2] (melanoma 518A2, 1 μg/ml) it was 11.3%; in assay [2] (melanoma 518A2, 1.25 μg/ml), 10.3%; in assay [2] (melanoma 518A2, 2.5 μg/ml), 2.8%. For the same compound, the survival in % in assay [2] (melanoma 518A2, 5 μg/ml) amounted to 0.0%; in assay [2] (melanoma 518A2, 10 μg/ml), 0.0%. The “Survival in % melanoma” value in assay [2] (Test #1: stock 50 mg/ml in EtOH, 1.0 μg/ml, 3 days) is 50%; in assay [2] (Test #1: stock 50 mg/ml in EtOH, 2.0 μg/ml, 3 days), 0.5%; in assay [2] (Test #1: stock 50 mg/ml in EtOH, 3.0 μg/ml, 3 days), 0.0%; in assay [2] (Test #1: stock 50 mg/ml in EtOH, 4.0 μg/ml, 3 days), 0.0%; in assay [2] (Test #2: inclusion compound, 5.9 mg/ml in 266 mg/ml HBC in H2O, 1.0 μg/ml, 3 days) it was 65%; in assay [2] (Test #2: inclusion compound, 5.9 mg/ml in 266 mg/ml HBC in H2O, 2.0 μg/ml, 3 days) it was 25%. The “Survival in % melanoma” value in assay [2] (Test #2: inclusion compound, 5.9 mg/ml in 266 mg/ml HBC in H2O, 3.0 μg/ml, 3 days) was determined as 0.0%; in assay [2] (Test #2: inclusion compound, 5.9 mg/ml in 266 mg/ml HBC in H2O, 4.0 μg/ml, 3 days), 0.0%; in assay [2] (Test #3: inclusion compound, 20 mg/ml in 266 mg/ml HBC in 50% EtOH/50% H2O, 1.0 μg/ml, 3 days), 77%; in assay [2] (Test #3: inclusion compound, 20 mg/ml in 266 mg/ml HBC in 50% EtOH/50% H2O, 2.0 μg/ml, 3 days) it was 24%; in assay [2] (Test #3: inclusion compound, 20 mg/ml in 266 mg/ml HBC in 50% EtOH/50% H2O, 3.0 μg/ml, 3 days), 0.0%; in assay [2] (Test #3: inclusion compound, 20 mg/ml in 266 mg/ml HBC in 50% EtOH/50% H2O, 4.0 μg/ml, 3 days), 0.0%. Besides, the “Survival in % melanoma” value in assay [2] (Test #4: inclusion compound, 25 mg/ml in 200 mg/ml HGC in 50% EtOH/50% H2O, 1.0 μg/ml, 3 days) is 59%; in assay [2] (Test #4: inclusion compound, 25 mg/ml in 200 mg/ml HGC in 50% EtOH/50% H2O, 2.0 μg/ml, 3 days), 4%; in assay [2] (Test #4: inclusion compound, 25 mg/ml in 200 mg/ml HGC in 50% EtOH/50% H2O, 3.0 μg/ml, 3 days), 0.0%. Also, the “activity relative to comparative compound (A)” value in assay [2] (melanoma cell line 518A2, from ED50) is given as “up to 7 times”.

On to `C=C(C)[C@@H]1CC[C@]2(C(=O)O)CC[C@]3(C)[C@H](CC[C@@H]4[C@@]5(C)CC[C@H](O)C(C)(C)[C@@H]5CC[C@]43C)[C@@H]12` [A, betulic acid, reference compound], for which the survival in % in assay [1] (setting [3]) is given as 98.0%; in assay [1] (setting [4]), 92.8%; in assay [1] (setting [5]), 92.3%; in assay [1] (setting [6]), 79.5%; in assay [1] (setting [7]) it was 49.3%; in assay [1] (setting [8]), 20.8%. In assay [1] (setting [9]), this compound returned a survival in % of 15.7%.
